Data as given in publication PMC3214022, “Plasmodium falciparum Parasites Are Killed by a Transition State Analogue of Purine Nucleoside Phosphorylase in a Primate Animal Model” (PLoS ONE, 2011).

System: P. falciparum cultures
Assay: Inosine and hypoxanthine rescue assay
Assay type: cell-based, Plasmodium falciparum
Conditions: 15 µM BCX4945, hypoxanthine or inosine up to 200 µM, 72 h
Experimental: Synchronized, schizont stage parasites were washed in purine-free medium to remove excess hypoxanthine and inoculated into freshly drawn erythrocytes that had been washed and resuspended in purine-free medium. The schizont stage parasites were cultured in purine-free medium for 24 h to further reduce hypoxanthine inside the cell. […] Parasite viability was determined by DNA quantitation as described by Quashie and colleagues. For each condition, two independent experiments were carried out in triplicate.

SMILES: Nc1nc2c(CN3CC(O)C(CO)C3)c[nH]c2c(=O)[nH]1 (stereo not shown) [BCX4945, 4′-deaza-1′-aza-2′-deoxy-1′-(9-methylene)-Immucillin-G]
- rescue of growth by purine supplementation: Hypoxanthine, but not inosine, can bypass PNP inhibition
